# Laboratory results as given in the METLIN SMRT retention time set (Domingo-Almenara et al. 2019).
# Assay: gradient 5% acetonitrile 3 min, to 50% in 2 min, to 85% in 15 min, held 3 min, 100 µL/min
# Conditions: column: Zorbax Extend-C18 2.1 x 50 mm; eluents: water / acetonitrile, 0.1% formic acid
# Procedure, shortened: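 Standards, all pure, were combined into mixtures of ~100 molecules and run at 100 μL/min on a Zorbax Extend-C18 column (2.1 × 50 mm, 1.8 μm) with water and acetonitrile, each containing 0.1% formic acid. A coupled quadrupole time-of-flight mass spectrometer operated in positive and negative ionization mode. Retention time values come from computationally picked adduct peaks, each inspected manually.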
row,Structure (SMILES),RP-LC retention time [s]
1,Cc1ccc(C(=O)NC2CCN(c3cc(-c4cccs4)[nH]n3)C2)c(C)c1 (stereo not given),742
2,Nc1nc(Cl)cc(Nc2ccccc2Cl)n1,845
3,CC(C)c1ccc(NC(=O)c2cn3c(n2)CCCC3)cc1,684
4,Cc1nn2c(CNC(=O)c3ccccc3)c(-c3ccccc3)nc2s1,810
5,CSc1ccc(-c2noc(Cn3c(=O)n(CC(C)C)c(=O)c4ccccc43)n2)cc1,1210
6,COCCN1C(=O)[C@H]2CN(Cc3ccccc3)C[C@H]2C1=O,572
7,Cc1ccc(NC(=O)Cn2cccc2-c2nnc(C3CCC3)o2)cc1Cl,1010
8,Cn1cnnc1SCCNC(=O)CCc1cccc(Oc2ccc(F)cc2)c1,697
9,COc1ccc(-c2noc(C3CCCN3C(=O)c3ccoc3)n2)cc1 (stereo not given),835
10,CCCCNC(=O)c1ccc2c(c1)NC(=O)C1CCCCN21 (stereo not given),759
11,O=C(Cc1csc(Nc2ncccn2)n1)NCC(F)(F)F,626
12,Cc1cc(C)c(S(=O)(=O)Nc2cccc(C(F)(F)F)c2)c(C)c1,1100
13,Cc1nc2cc(NC(=O)c3csc(Nc4ncccn4)n3)ccc2s1,706
14,CN(C)CCn1nnc2cc(-c3noc(-c4cccc(Cl)c4)n3)ccc21,708
15,O=C(NCc1ccc(F)cc1)c1cn(-c2ccc(NC(=O)C3CC3)cn2)cn1,748
16,Cc1sc(C)c(S(=O)(=O)NCc2ccc(F)cc2)c1-c1cc(C(F)(F)F)on1,1160
17,CC(C)NC(=O)C1CCCN(S(=O)(=O)c2cc(-c3noc(C4CCCC4)n3)cs2)C1 (stereo not given),1050
18,O=C1CC(c2ccccc2)N(S(=O)(=O)c2cccc3nsnc23)CCCCCCN1 (stereo not given),886
19,C[C@@H]1CC2C3CCC4=CC(=O)C=CC4(C)[C@@]3(F)[C@@H](O)CC2(C)[C@@]1(O)C(=O)CO (stereo not given in full),737
20,COc1ccc(-c2nc3cnccn3c2Nc2cccc(C(=O)O)c2)cc1,894
21,O=C(Cc1csc(SCC(=O)c2cccs2)n1)NCCc1c[nH]c2ccccc12,806
22,COCCc1noc(-c2cnc3nc(C)ccc3c2NCc2ccccc2C)n1,653
23,CCSc1nc(O)cc(=O)[nH]1,628
24,c1cc(-c2nc(-c3ccnc(N4CCCC4)c3)no2)ccn1,594
25,Cc1ccc(C2=NC3(CCN(C(=O)Cc4ccccc4C)CC3)ON2)cc1,933
26,CNC(=O)c1ccc(-c2nc3cc(NS(=O)(=O)c4ccc(Br)cc4)ccc3n2C)cc1,673
27,Cc1ccc(-n2ccc(=O)c(-c3nc(-c4cccc(Br)c4)no3)n2)cc1,1030

row,Structure (SMILES),RP-LC retention time [s]
1,CCN(CC)CCNC(=O)C1c2ccccc2C(=O)N(C)C1c1cccs1 (stereo not given),611
2,O=C(NC1CCCCC1)C1CC(=O)N(c2ccc3c(c2)CCN3C(=O)C2CC2)C1 (stereo not given),733
3,CCCc1noc(-c2ccc(-n3ncc(C(=O)NCC)c3C)nc2)n1,808
4,Cc1cccc(NC(=O)Nc2c(-c3ccc(F)cc3)nc3ccccn23)c1,695
5,CC1Oc2ccc(-c3csc(NC(=O)c4cccc(Br)c4)n3)cc2NC1=O (stereo not given),995
6,O=C(Nc1ccccc1F)C1CC(=O)N(c2ccc3c(c2)CCN3C(=O)C2CC2)C1 (stereo not given),749
7,COc1ccc(N2CC(c3nc(-c4ccc(Br)cc4)no3)CC2=O)cc1 (stereo not given),1050
8,CC(=O)NCc1csc(C2CCCN(C(=O)COc3ccccc3)C2)n1 (stereo not given),670
9,COc1ccccc1-c1ccc(SCc2cccc(C)c2)nn1,1080
10,CC(C)n1cc(CN2CCOCCNC(=O)CC2)c2ccccc21,631
11,O=C(Nc1ccc(-n2cnc(C(=O)N3CCC(Cc4ccccc4)CC3)c2)nc1)C1CC1,860
12,O=[N+]([O-])c1ccc(-c2csc(N3CCOCC3)n2)cc1,1000
13,CC1(C)CCCC2(C)C3=C(CCC12)C(=O)OC3 (stereo not given),1270
14,CCn1c(=O)n(-c2ccc(F)cc2)c2nc(-c3ccc(F)cc3F)nc(C(N)=O)c21,1000
15,CN(C)CCc1c[nH]c2ccc(CS(=O)(=O)N3CCCC3)cc12,629
16,CC(C)Cn1c(=O)c2cc(C(=O)NCCCn3cccn3)nn2c2ccccc21,831
17,CN(C)CCNC(=O)C1CCCN(c2ccc(Sc3ccc(Br)cc3)nn2)C1 (stereo not given),648
18,Cc1ccc(S(=O)(=O)CCC(=O)N2CCCC2c2nc(-c3ccc(Cl)cc3)no2)cc1 (stereo not given),1060
19,CC(C)CC(=O)N1CCc2cc(CNC(=O)c3ccnn3C)ccc21,754
20,CC(C)CN1CCn2cc(C(=O)NCc3ccc(F)c(Cl)c3)nc2C1,647
21,CCn1cc(C(=O)N2C[C@@H](COCC3CC3)[C@H](c3nc(C)no3)C2)cn1,714
22,Cc1ccccc1Nc1c(-c2ccccc2)nc2ncccn12,759
23,Cc1ccc(NC(=O)c2c(O)c3cccnc3n(-c3ccc(F)cc3)c2=O)c(F)c1,1330
24,COc1ccc(S(=O)(=O)Nc2ccccc2C(=O)Nc2ccc3c(c2)OCCO3)cc1,880
25,CCCNC(=O)c1ccc2c(c1)CCCN2S(=O)(=O)CC,753
26,Cc1ccsc1C(=O)N1CCC2(CC1)CC(N1CCOCC1)CCO2 (stereo not given),577

# Continued, values first:
row,RP-LC retention time [s],Structure (SMILES)
1,613,CCn1cc(CCN2CCN(C(=O)C3CCCCC3)CC2)c2cccnc21
2,823,CCOc1ccccc1CNC(=O)c1c(C)sc2ccn(C)c(=O)c12
3,626,COc1ccc2ncc(C#N)c(Nc3cc(OC)c(OC)c(OC)c3)c2c1
4,563,CCN1CCN(Cc2nc3cc(NC(=O)C(C)C)ccc3n2C(C)C)CC1
5,829,Cn1cc(-c2cc3n(n2)CCC(=O)N3CC(=O)Nc2cccc(F)c2)c2ccccc21
6,915,CCOc1ccccc1NC(=O)N1CCN(c2ccc(=O)n(-c3ccc(C)cc3)n2)CC1
7,837,CCC1Oc2ccc(S(=O)(=O)N3CCC(C(=O)Nc4cccc(C)c4C)CC3)cc2NC1=O (stereo not given)
8,618,CCOC(=O)c1c(C)[nH]c(CCC(=O)NCCN2CCCCC2C)c1C (stereo not given)
9,882,CCOC(=O)c1c(C)c(C(=O)Nc2cccc(C)c2C)c(C)n1C
10,932,COc1ccc(OC)c(NC(=O)N2CCCC(C)(C(=O)NCc3ccc(C)cc3)C2)c1 (stereo not given)
11,887,COc1cc(N2C=C(C#N)S(=O)(=O)c3ccc(C)cc32)cc(OC)c1OC
12,920,COc1ccccc1C(=O)N1CCc2cn(C)c3cccc(c23)C1
13,632,CCC1CN(C(=O)N2CCC(C(=O)NCCN3CCOCC3)CC2)c2cc(C)ccc2O1 (stereo not given)
14,738,Cc1cccc(N2CCN(c3cc(C)nc4c(-c5ccccc5)cnn34)CC2)n1
15,805,CCS(=O)(=O)N1CC(=O)N(c2ccc(F)cc2C)C(C)(C(=O)NC2CCCC2)C1 (stereo not given)
16,593,Cc1ccc(CN2CCN(C(=O)c3cccc4[nH]cc(CN5CCSCC5)c34)CC2)cc1
17,670,Cc1cc(N2CCCC2)nc(N2CCN(C(=O)C3CCCC3)CC2)n1
18,876,CCOC(=O)c1cc2n(n1)CC(C)(C(=O)NC1CCCC1)N(c1ccccc1F)C2=O (stereo not given)
19,619,O=C(CCc1ccccc1)NCCN1CCN(c2ccc(Cl)cc2)CC1

row,RP-LC retention time [s],Structure (SMILES)
1,806,Cc1ccc(Nc2nc(C)cc(N3CCN(C(=O)Nc4cccc(C(F)(F)F)c4)CC3)n2)cc1
2,608,Cn1nc(C(=O)N2CCCCC2)c2c1CCN(C(=O)CCC(=O)NCC1CCCO1)C2 (stereo not given)
3,778,COc1ccc(S(=O)(=O)N2CCCC(C(=O)NCC3CCCO3)C2)cc1C (stereo not given)
4,874,CCOc1ccc(-n2nnnc2CN2CCN(S(=O)(=O)c3cccs3)CC2)cc1
5,1060,COc1cc(OC)cc(-c2nc(-c3nnn(Cc4ccccc4)c3C)no2)c1
6,554,Cc1cc(C(=O)N2CCN(CCNC(=O)c3ccsc3)CC2)c(C)o1
7,571,CC(C)n1cnc(S(=O)(=O)N2CCC(C(=O)N3CCN(c4ccccn4)CC3)CC2)c1
8,1210,CCOC(=O)c1cccc(NC(=O)N2CCc3cn(C)c4cccc(c34)C2)c1
9,639,COc1cccc(C(=O)N2CCC(c3cc(N)on3)CC2)c1OC
10,1000,COc1ccc(-n2cc(C(=O)Nc3ccc(OC)cc3OC)nn2)cc1
11,888,CCn1c(=O)c2c(cc(C)n2C)n(CC(=O)Nc2cc(Cl)ccc2OC)c1=O
12,1130,COc1ccc(Br)c2c1-c1nc(NC(=O)c3ccccc3)sc1C2
13,789,Cc1ccc(NC(=O)Cn2nc(N3CCOCC3)c3ccccc3c2=O)cc1
14,733,COc1cc(OC)c2c(=O)cc(-c3cccnc3)oc2c1
15,655,COc1ccc(-c2cc(N3CCC(NC(=O)c4ccc(OC)c(OC)c4)C3)n[nH]2)cc1 (stereo not given)
16,673,COc1cc(C(=O)N2CCN(c3c(C)n(C)c(=O)n(C)c3=O)CC2)cc(OC)c1OC
17,600,Cc1cc(C)c2c(N3CCSCC3)nc(C(=O)N3CCCN(C)CC3)nc2n1
18,924,COc1ccc(CN2CC3(CCN(S(=O)(=O)c4cc(F)ccc4F)CC3)C2=O)cc1
